The test system of experiment [1] is S. aureus strains (Newman, USA300, CA-409, CA-127, NY-315). The experiment can be described thus: Rapid SYBR Green/PI antibiotic susceptibility test. To be noted: for cut-off (averaged proportion of killed cells) for resistant strains / cut-off (averaged proportion of killed cells) for susceptible strains: 100 μg/mL, 1.5 hours. The experiment is classed as cell-based, Staphylococcus aureus.

The test system of a further experiment is B. burgdorferi. To be noted: after 72 h; Kraiczy et al., 2001; cited from earlier work.
Experiment [2] concerns B. burgdorferi (growing, strain B31). The experiment can be described thus: MIC determination, standard microdilution method. The experiment is classed as cell-based, Borrelia burgdorferi. To be noted: Borreliella burgdorferi; growing B. burgdorferi; read-out: MIC.
In another experiment the test system is M. tuberculosis H37Ra. In kind it is cell-based, Mycobacterium tuberculosis. To be noted: pH 5.9.
In experiment [3] the test system is stationary phase B. burgdorferi persisters (strain B31). Conditions: drug alone; cited from earlier work.
Experiment [4] deals with round body form of B. burgdorferi. The experiment can be described thus: SYBR Green I/PI assay on amoxicillin-induced round body form.
In the next experiment the test system is E. coli W3110. Put plainly: MIC by broth microdilution (OD600) and SYBR Green/PI. The experiment is classed as cell-based. To be noted: Escherichia coli; E. coli W3110, overnight incubation. The text has this:
The Kirby-Bauer disk diffusion assay was used to determine the susceptibility of the various strains to antibiotics. Instructions and also interpretation of zone diameters were made using the established standards as listed in the Clinical and Laboratory Standards Institute (CLSI). Briefly, bacterial cultures were adjusted to a 0.5 McFarland turbidity standard and spread onto Mueller-Hinton agar. Paper Disks were impregnated onto the agar and the antibiotics at concentrations recommended by CLSI were pipetted onto each blank disk and allowed to air dry for 10 minutes. The plates were incubated at 37° C. overnight before the zone of inhibition was measured in millimeters. […]
The staining dye for Staphylococcus aureus, Escherichia coli, Acinetobacter baumanii, and Mycobacterium tuberculosis were made by mixing SYBR Green I to propidium iodide (1:3) in 100 μl distilled H2O. […] The green and red fluorescence intensity was detected using a Synergy H1 microplate reader by Bio Tek Instruments (VT, USA) at excitation wavelength of 485 nm, 538 nm (green emission), and 612 nm (red emission). The percentage of live cells in each sample was determined by a regression equation generated by a standard curve. […] The staining mixture was added to each sample and the green/red fluorescent ratios were measured as described above. […]

Experiment [5] has as its system E. coli strains (W3110, UTI89, CFT073, KTE181). Put plainly: Rapid SYBR Green/PI antibiotic susceptibility test. The experiment is classed as cell-based, Escherichia coli.
In another experiment the test system is E. coli UTI89 persisters. The experiment can be described thus: Persister assay (CFU enumeration and SYBR Green/PI). In kind it is cell-based, Escherichia coli. Conditions: ampicillin 100, ofloxacin 5, polymycin B 10, gentamicin 20 μg/mL. The protocol:
Stationary phase cultures of E. coli UTI89 were treated with ofloxacin (5 μg/mL) for 4 hours to enrich for persisters, followed by drug exposure with different antibiotics including ampicillin (100 μg/mL), ofloxacin (5 μg/mL), polymycin B (10 μg/mL) and gentamicin (20 μg/mL). The bacterial viability was determined by CFU enumeration and SYBR Green/PI assay as described above.

Another experiment concerns S. aureus USA300. Put plainly: MIC by broth microdilution (OD600) and SYBR Green/PI. To be noted: Staphylococcus aureus; S. aureus USA300, overnight incubation. In kind it is cell-based.
Setting [6] is: ampicillin, streptomycin 100 μg/mL, trimethoprim 5 μg/mL.

The values that follow come from patent publication US20170058314A1, “NOVEL METHODOLOGY FOR IDENTIFYING ANTI-PERSISTER ACTIVITY AND ANTIMICROBIAL SUSCEPTIBILITY FOR BORRELIA BURGDORFERI AND OTHER BACTERIA” (priority 2014, published 2017).

Values after ≈ are worked out from the molar mass of the structure shown. Values joined by “and” are separate entries in the source; they are usually repeats but may differ in a detail not shown here. Equal values may be shown once.

As for `O=C(O)c1cn(C2CC2)c2cc(N3CCNCC3)c(F)cc2c1=O` [Ciprofloxacin], in experiment [1], the “cut-off (averaged proportion of killed cells) for resistant strains” value (“cut-off … for resistant strains” below) is given as −0.1 and the “cut-off (averaged proportion of killed cells) for susceptible strains” value (shortened to “cut-off … for susceptible strains”) is recorded as −0.3. The “percent killed, resistant strain CA-409” value in experiment [1] (30 minutes, kanamycin 25, ciprofloxacin 50, gentamicin 400 μg/mL) worked out at 21%. Moreover, the “percent killed, sensitive Newman strain” value in experiment [1] (30 minutes, kanamycin 25, erythromycin 400, ciprofloxacin 50, gentamicin 400 μg/mL) came out at 58%. In the experiment with B. burgdorferi, the minimal bactericidal concentration (MBC) was 16 μg/mL and 41.5 μM. Besides, the MIC in [2] was 0.8 to 1.6 µg/mL (≈ 2.41 to 4.83 µM).

With `NC(=O)c1cnccn1` [PZA, pyrazinamide], the “susceptibility of parent strain H37Ra” value in the experiment with M. tuberculosis H37Ra was “susceptible”.

For the compound `Cc1ccc(C(C)C)c(O)c1` [Thymol], the “residual live cell percentage, stationary phase, previous drug screen” value in [3] is 82%. In addition, the viability at 50 µM in [4] (Borreliella burgdorferi, 168 h, read-out: Residual viable cells (SYBR Green I/PI assay)) stood at 34%. Also, in [4] (round body form, 50 μM, 7 days), the “Ratios of green/red fluorescence, Primary screening” value came to 6.15; the “Ratios of green/red fluorescence, Rescreening (first column)” value is given as 6.36; the “Ratios of green/red fluorescence, Rescreening (second column)” value is reported as 6.36.

Consider `CC1(C)S[C@@H]2[C@H](NC(=O)[C@H](N)c3ccccc3)C(=O)N2[C@H]1C(=O)O` [ampicillin], for which the MIC with E. coli W3110 was found to be 8 µg/mL. In [5] (30 minutes, ampicillin 100 μg/mL), the “percent killed, sensitive strain UTI89” value was 23%. For the same compound, the “percent killed, sensitive strain W3110” value in [5] (30 minutes, ampicillin 100 μg/mL, others 25 μg/mL) was 38%. Besides, the “percent killed, resistant strain KTE181” value in experiment [5] (30 minutes, ampicillin 100, trimethoprim 25, streptomycin 25 μg/mL) amounted to 1%. Besides, in [5] (setting [6]), the “cut-off … for resistant strains” value is listed as -0.1 and the “cut-off … for susceptible strains” value is recorded as −0.5. Further, the “level of persisters over 7 days (words; CFU and SYBR Green/PI)” value in the experiment with E. coli UTI89 persisters is reported as “stayed constant”.

In the experiment with S. aureus USA300, `O=C(N[C@H](CO)[C@H](O)c1ccc([N+](=O)[O-])cc1)C(Cl)Cl` [chloramphenicol] gave a minimal inhibitory concentration (MIC) of 4 µg/mL (≈ 12.4 µM). Besides, in experiment [1], the “cut-off … for resistant strains” value was −0.1 and the “cut-off … for susceptible strains” value is on record as −0.5.
